Experimental data as given in US7402688B2, “2,2-Di-substituted 1alpha,25-dihydroxy-19-norvitamin D derivative” (Wisconsin Alumni Research Foundation, priority 2002, dated 2008).

target: T1, vitamin D receptor (VDR) (Bos taurus, UniProt Q28037); test: Binding assay for calf thymus vitamin D receptor (VDR); conditions: relative to 1α,25-dihydroxyvitamin D3 = 1; ratio of concentrations for 50% inhibition of [3H]-1α,25-dihydroxyvitamin D3 binding to calf thymus VDR
T1 construct: vitamin D receptor (VDR) derived from calf thymus was evaluated; purchased Yamasa Shoyu Co., Ltd. (Choshi, Chiba, Japan) Lot; No. 111931; host or cells: calf thymus (tissue preparation)
T1 sequence (Q28037 1-426): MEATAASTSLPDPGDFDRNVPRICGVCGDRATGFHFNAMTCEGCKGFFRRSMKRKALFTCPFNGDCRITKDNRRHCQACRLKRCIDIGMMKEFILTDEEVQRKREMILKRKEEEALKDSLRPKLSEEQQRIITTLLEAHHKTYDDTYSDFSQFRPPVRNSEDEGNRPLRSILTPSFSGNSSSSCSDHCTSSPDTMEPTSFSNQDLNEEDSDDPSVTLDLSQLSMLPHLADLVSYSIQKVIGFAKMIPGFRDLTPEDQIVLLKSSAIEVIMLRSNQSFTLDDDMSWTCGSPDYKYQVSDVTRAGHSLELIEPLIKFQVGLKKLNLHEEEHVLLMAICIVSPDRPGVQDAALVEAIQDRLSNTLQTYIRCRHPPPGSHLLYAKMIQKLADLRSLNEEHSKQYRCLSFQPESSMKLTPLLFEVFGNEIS
Method: Binding Assay for Calf Thymus Vitamin D Receptor (VDR)
The binding ability of the compounds of the present inventions described in the above Examples to vitamin D receptor (VDR) derived from calf thymus was evaluated.
The binding assay was carried out according to the manufacturer's instruction of Yamasa Shoyu Co., Ltd. as follows.
An EtOH solution (sample) containing an increasing amount of each 1α,25-dihydroxyvitamin D3 (as a standard reference material), and Compounds YI-1a, YI-1b, YI-2a, YI-3a, YI-3b, YI-4a, YI-4b, YI-5a, YI-5b, 20-Epi-YI-1a, 20-Epi-YI-1b, 20-Epi-YI-2a, 20-Epi-YI-3a, 20-Epi-YI-4a, 20-Epi-YI-4b, 20-Epi-YI-5a, 20-Epi-YI-5b, 20-Epi-YI-6a, 20-Epi-YI-6b, 20-Epi-YI-7a, 20-Epi-YI-7b, 20-Epi-YI-8a, and 20-Epi-YI-8b was prepared, that is, dilution series were prepared wherein final concentrations of each compounds in a mixture, which is prepared by following step, of receptor solutions, samples, and [^3H]-1α,25-dihydroxyvitamin D3 solutions are 100 nM, 30 nM 10 nM, 1 nM, 300 pM, 100 pM, 30 pM, 10 pM, 3 pM, and 1 pM.
Freeze-dried calf thymus vitamin D receptors (Lot. No. 111931) were purchased from Yamasa Shoyu Co., Ltd. (Choshi, Chiba, Japan) and were dissolved in 45 mL of phosphate buffer (0.3 M KCl, 0.05 M K2HPO4—KH2PO4, pH 7.4) just before use to use as a receptor solution.
50 μL of sample of Compounds YI-1a, YI-1b, YI-2a, YI-3a, YI-3b, YI-4a, YI-4b, YI-5a, YI-5b, 20-Epi-YI-1a, 20-Epi-YI-1b, 20-Epi-YI-2a, 20-Epi-YI-3a, 20-Epi-YI-4a, 20-Epi-YI-4b, 20-Epi-YI-5a, 20-Epi-YI-5b, 20-Epi-YI-6a, 20-Epi-YI-6b, 20-Epi-YI-7a, 20-EPi-YI-7b, 20-Epi-YI-8a, 20-Epi-YI-8b, or 1α,25-dihydroxyvitamin D3 and 500 μL of the receptor solution were pipetted into glass culture tubes. The mixture was vortexed 2-3 times, and incubated for 1 h at room temperature. To each tubes, [^3H]-1α,25-dihydroxyvitamin D3 (ca. 10000 dpm) in 50 μL of EtOH was added, the mixture was vortexed 2-3 times, and the whole mixture was incubated for 18 h at 4° C. (in a refrigerator). Then, 200 μL of DCC (dextran-coated charcoal; purchased from Yamasa Shoyu) was added to each tubes, and allowed to stand for 30 min at 4° C. Bound and free [^3]-1α,25-dihydroxyvitamin D3 were separated by centrifugation at 3000 rpm for 15 min at 4° C. Aliquots (500 μL) of the supernatant were put into vial bottles from each tube, and were mixed with 10 mL of ACS-II fluid scintillator (Amersham, Buckinghamshire, U.K.) and submitted for radioactivity counting.
The relative binding affinity of the vitamin D derivatives of the present inventions to VDR was calculated regarding binding affinity of 1α,25-dihydroxyvitamin D3 to VDR as 1. The following equation was used to calculate the relative VDR binding affinity: X=y/x
X: the relative binding affinity of the compound of the present inventions to VDR
y: the concentration of 1α,25-dihydroxyvitamin D3 required for 50% inhibition of binding [^3H]-1α,25-dihydroxyvitamin D3 to VDR
x: the concentration of the compound of the present inventions required for 50% inhibition of binding [^3H]-1α,25-dihydroxyvitamin D3 to VDR

SMILES | VDR affinity (relative binding affinity X=y/x)
C[C@H](CCCC(C)(C)O)C1CCC2/C(=C/C=C3C[C@@H](O)C(C)(O)[C@H](O)C3)CCCC21C (stereo partly drawn) [YI-3a, 1α,2β,25-trihydroxy-2α-methyl-19-norvitamin D3] | 1/3
C[C@H](CCCC(C)(C)O)C1CCC2/C(=C/C=C3C[C@@H](O)C4(CO4)[C@H](O)C3)CCCC21C (stereo partly drawn) [YI-1a, 1α,25-dihydroxy-2β,2′-epoxy-19-norvitamin D3] | 1/23
COCC1(O)[C@H](O)CC(=C/C=C2\CCCC3(C)C2CCC3[C@H](C)CCCC(C)(C)O)C[C@H]1O (stereo partly drawn) [YI-5a, 1α,2β,25-trihydroxy-2α-methoxymethyl-19-norvitamin D3] | 1/26
C[C@@H](CCCC(C)(C)O)C1CCC2/C(=C/C=C3C[C@@H](O)C(O)(CF)[C@H](O)C3)CCCC21C (stereo partly drawn) [Compound 20-Epi-YI-2a, (20S)-1α,2β,25-trihydroxy-2α-fluoromethyl-19-norvitamin D3] | 2
C[C@@H](CCCC(C)(C)O)C1CCC2/C(=C/C=C3C[C@@H](O)C(OCCO)[C@H](O)C3)CCCC21C (single isomer, unassigned) [Compound 20-Epi-YI-6b] | 5
C[C@@H](CCCC(C)(C)O)C1CCC2/C(=C/C=C3C[C@@H](O)C4(CO4)[C@H](O)C3)CCCC21C (stereo partly drawn) [Compound 20-Epi-YI-1a, (20S)-1α,25-dihydroxy-2β,2′-epoxy-19-norvitamin D3] | 1/2
CCC1(O)[C@H](O)CC(=C/C=C2\CCCC3(C)C2CCC3[C@@H](C)CCCC(C)(C)O)C[C@H]1O (stereo partly drawn) [Compound 20-Epi-YI-4a, (20S)-1α,2β,25-trihydroxy-2α-ethyl-19-norvitamin D3] | 1/20
CCC1(O)[C@H](O)CC(=C/C=C2\CCCC3(C)C2CCC3[C@H](C)CCCC(C)(C)O)C[C@H]1O (stereo partly drawn) [YI-4a, 1α,2β,25-trihydroxy-2α-ethyl-19-norvitamin D3] | 1/50
C[C@@H](CCCC(C)(C)O)C1CCC2/C(=C/C=C3C[C@@H](O)C4(CO4)[C@H](O)C3)CCCC21C (stereo partly drawn) [Compound 20-Epi-YI-1b, (20S)-1α,25-dihydroxy-2α,2′-epoxy-19-norvitamin D3] | 1/5
C[C@@H](CCCC(C)(C)O)C1CCC2/C(=C/C=C3C[C@@H](O)C(CCO)[C@H](O)C3)CCCC21C (stereo partly drawn) [Compound 20-Epi-YI-7b] | 1/5
C[C@@H](CCCC(C)(C)O)C1CCC2/C(=C/C=C3C[C@@H](O)C(=CCO)[C@H](O)C3)CCCC21C (stereo partly drawn) [Compound 20-Epi-YI-8b, (20S)-1α,25-dihydroxy-2-[2-(hydroxyl)-ethylidene]-19-norvitamin D3] | 1/50
C[C@@H](CCCC(C)(C)O)C1CCC2/C(=C/C=C3C[C@@H](O)C(C)(O)[C@H](O)C3)CCCC21C (stereo partly drawn) [Compound 20-Epi-YI-3a, (20S)-1α,2β,25-trihydroxy-2α-methyl-19-norvitamin D3] | 1
C[C@H](CCCC(C)(C)O)C1CCC2/C(=C/C=C3C[C@@H](O)C(O)(CF)[C@H](O)C3)CCCC21C (stereo partly drawn) [YI-2a, 1α,2β,25-trihydroxy-2α-fluoromethyl-19-norvitamin D3] | 1/43
C[C@@H](CCCC(C)(C)O)C1CCC2/C(=C/C=C3C[C@@H](O)C(OCCO)[C@H](O)C3)CCCC21C (single isomer, unassigned) [Compound 20-Epi-YI-6a] | 1
C[C@@H](CCCC(C)(C)O)C1CCC2/C(=C/C=C3C[C@@H](O)C(CCO)[C@H](O)C3)CCCC21C (stereo partly drawn) [Compound 20-Epi-YI-7a] | 1
C[C@@H](CCCC(C)(C)O)C1CCC2/C(=C/C=C3C[C@@H](O)C(=CCO)[C@H](O)C3)CCCC21C (stereo partly drawn) [Compound 20-Epi-YI-8a] | 1.6
C[C@H](CCCC(C)(C)O)C1CCC2/C(=C/C=C3C[C@@H](O)C(C)(O)[C@H](O)C3)CCCC21C (stereo partly drawn) [YI-3b, 1α,2α,25-trihydroxy-2β-methyl-19-norvitamin D3] | 1/730
C[C@H](CCCC(C)(C)O)C1CCC2/C(=C/C=C3C[C@@H](O)C4(CO4)[C@H](O)C3)CCCC21C (stereo partly drawn) [YI-1b, 1α,25-dihydroxy-2α,2′-epoxy-19-norvitamin D3] | 1/290
COCC1(O)[C@H](O)CC(=C/C=C2\CCCC3(C)C2CCC3[C@@H](C)CCCC(C)(C)O)C[C@H]1O (stereo partly drawn) [Compound 20-Epi-YI-5b, (20S)-1α,2α,25-trihydroxy-2β-methoxymethyl-19-norvitamin D3] | 1/10
CCC1(O)[C@H](O)CC(=C/C=C2\CCCC3(C)C2CCC3[C@@H](C)CCCC(C)(C)O)C[C@H]1O (stereo partly drawn) [Compound 20-Epi-YI-4b, (20S)-1α,2α,25-trihydroxy-2β-ethyl-19-norvitamin D3] | 1/1000
COCC1(O)[C@H](O)CC(=C/C=C2\CCCC3(C)C2CCC3[C@@H](C)CCCC(C)(C)O)C[C@H]1O (stereo partly drawn) [Compound 20-Epi-YI-5a, (20S)-1α,2β,25-trihydroxy-2α-methoxymethyl-19-norvitamin D3] | 1/5
CCC1(O)[C@H](O)CC(=C/C=C2\CCCC3(C)C2CCC3[C@H](C)CCCC(C)(C)O)C[C@H]1O (stereo partly drawn) [YI-4b, 1α,2α,25-trihydroxy-2β-ethyl-19-norvitamin D3] | 1/2000
COCC1(O)[C@H](O)CC(=C/C=C2\CCCC3(C)C2CCC3[C@H](C)CCCC(C)(C)O)C[C@H]1O (stereo partly drawn) [YI-5b, 1α,2α,25-trihydroxy-2β-methoxymethyl-19-norvitamin D3] | 1/820

system: cellular differentiation; test: not given; conditions: compared with 1,25-(OH)2D3; cited from earlier work

SMILES | cellular effects
C[C@H](CCCC(C)(C)O)[C@H]1CC[C@H]2/C(=C/C=C3C[C@@H](O)C[C@H](O)C3)CCC[C@]12C [19-nor-1,25-(OH)2D3, 19-nor-1α,25-dihydroxyvitamin D3] | equivalent to 1,25-(OH)2D3
